Assay results taken from US20090005442A1, “CARBAMATE COMPOUNDS FOR USE IN PREVENTING OR TREATING NEURODEGENERATIVE DISORDERS” (priority 2001, published 2009).

System: PC12 cells
Assay: PC12 cell serum withdrawal model (MTS cell survival assay)
Type: cell-based
Conditions: control cells = 100%; for 7 Day Survival Rate (%): 10 μM applied at serum withdrawal and every 48 hr, MTS assay at 7 days; for 2 Day Survival Rate (%): 10 μM applied once at serum withdrawal, MTS assay at 2 days
Description: Serum withdrawal is a cytotoxic environmental challenge that results in cell death in cultured cell lines as well as in primary cells of various tissue origins, including nerve cells. In particular, pheochromocytoma (PC) 12 cells have been widely employed as an in vitro neuronal cell model for a wide variety of neurodegenerative and cell death related disorders (Muriel, et al, Mitochondrial free calcium levels (Rhod-2 fluorescence) and ultrastructural alterations in neuronally differentiated PC12 cells during ceramide-dependent cell death, J. Comp. Neurol., 2000, 426(2), 297-315; Dermitzaki, et al, Opioids transiently prevent activation of apoptotic mechanisms following short periods of serum withdrawal, J. Neurochem., 2000, 74(3), 960-969; Carlile, et al, Reduced apoptosis after nerve growth factor and serum withdrawal: conversion of tetrameric glyceraldehyde-3-phosphate dehydrogenase to a dimer, Mol. Pharmacol., 2000, 57(1), 2-12).
PC12 cells were cultured in sterile media (RPMI 1640) supplemented with 10% heat-inactivated horse serum and 5% fetal bovine serum (FBS). The culture medium also contained 1× Penicillin-Streptomycin-Neomycin antibiotic (50 μg, 50 μg, 100 μg, respectively). Medium was exchanged every other day and the cells were passed in log phase near confluence.
The control cells were cultured in regular media without any treatment. An enantiomer of Formula (Ib) or […] (10 μM) was mixed well in the medium and then applied to the cells. For the 2 day assay, an enantiomer of Formula (Ib) or […] (10 μM) was only applied to the cells once at the time of serum withdrawal. For the 7 day assay, an enantiomer of Formula (Ib) or Formula (IIb) (10 μM) was applied to the cells at the time of serum withdrawal and every 48 hr thereafter when cells were changed with fresh new serum-free medium. In the serum withdrawal group, the cells were cultured in serum-free medium with no additional enantiomer of Formula (Ib) or Formula (IIb). Cell survival was determined by the 3-(4,5-dimethylthiazol-2-yl)-5-(3-carboxy-methoxyphenyl)-2-(4-sulfophenyl)-2H-tetrazolium inner salt (MTS) assay at 2 or 7 days after serum withdrawal.
At the end of the experiment, cells were washed with fresh medium and incubated with MTS solution in a humidified 37° C. with 5% CO2 incubator for 1.5 hr. After the incubation period, the cells were immediately analyzed using a Softmax program (Molecular Devices). […] The assay is based on the cellular conversion of the tetrazolium salt, MTS, into a formazan that is soluble in tissue culture medium and measured directly at 490 nm in 96-well assay plates. The absorbance is directly proportional to the number of living cells in culture. The arbitrary absorbance reading in control cells is expressed as 100% survival rate.

Compound	7 Day Survival Rate (%)	2 Day Survival Rate (%)
NC(=O)OC[C@H](OC(N)=O)c1ccccc1Cl [Formula (IIb)]	85.2 ± 0.6^2%	66.4 ± 5.4^1%
NC(=O)OC[C@@H](O)c1ccccc1Cl [Formula (Ib)]	79.9 ± 4.0^2%	69.4 ± 1.7^1%
